Reference: US5820881A, “Microspheres of diamide-dicarboxylic acids” (Emisphere Technologies, Inc., priority 1995, dated 1998)
“Also recorded” adds a separate entry of the source. Structures can show the parent of a compound that is named as a salt. Where two headings read alike, the source gives them in different places.

What was measured:
Assay type in all cases: physicochemical
[1] = Microsphere formation (Li2CO3 solution mixed with aqueous citric acid; microscopic examination); conditions: for Microsphere formation / self-assembly: aqueous salt solution + citric acid; for Diameter of spheres: from 10 μm to submicrons, light microscopy
Experimental: The bis-amide dicarboxylic acid prepared according to the method of Example 4 was dissolved in 0.1 mL of aqueous Li2 CO3 (0.1M) to yield a clear solution of the lithium salt in deionized water. 50 μL of the 0.1M solution was mixed with 50 μL of 1M aqueous citric acid and shaken. A white suspension was generated.
The method of Example 17 was followed, substituting the bis-amide dicarboxylic acid prepared according to the method of Example 5. A white suspension was generated.
The method of Example 17 was followed, substituting the bis-amide dicarboxylic acid prepared according to the method of Example 6. A white suspension was generated.
The method of Example 17 was followed, substituting the bis-amide dicarboxylic acid prepared according to the method of Example 15. A white suspension was generated.

[2] = pH dependence of microsphere formation (turbidity, % transmittance at 600 nm); conditions: for pH at which % T is > 95%: amide concentration 50 mM in 500 mM Li citrate
Experimental: 500 μL of 100 mM dilithium diamide solution prepared according to the method of Example 21 was mixed with an equal volume of one of a series of 1M lithium citrate buffers containing between 0 to 1 equivalent of lithium hydroxide so that the final measured pH of the mixture ranged from ca. 2.4 to 4.0. Turbidity was assessed over this pH range by measuring % transmittance at 600 nm.
The method of Example 25 was followed substituting the bis-amide dicarboxylic acid prepared according to the method of Example 5.
The method of Example 25 was followed substituting the bis-amide dicarboxylic acid prepared according to the method of Example 6.
The method of Example 25 was followed substituting the bis-amide dicarboxylic acid prepared according tot he method of Example 15.
(§1) Each of the compounds of Examples 4-6 and 15 was evaluated by monitoring the change in the solution turbidity, while altering the pH at a fixed Phe amide concentration or by holding the pH constant and varying the concentration of the amide substrate. Each concentration dependence was determined in 500 mM citric acid from a plot of the solution transmittance (% T) vs. concentration. […] The influence of pH on solution turbidity was studied in solutions containing 50 mM in 500 mM lithium citrate buffers. The percent transmittance (% T) was <0.5% at pH 2.67 and >95% at pH 3.26. The pKas were determined by titration of each Phe amide substrate. As expected, the pKas of these Phe diamide diacids were all very similar.

[3] = Concentration dependence of microsphere formation (turbidity, % transmittance at 600 nm); conditions: for Concentration of amide above which a dense suspension (% T < 0.5) of microspheres is formed: 500 mM citric acid (pH 2.4)
Experimental: A stock solution containing the lithium salt of the diamide prepared according to the method of Example 4 was prepared by stepwise addition of exactly two equivalents of a standardized solution of LiOH (stored under argon to prevent precipitation of lithium carbonate). The final concentration of the dilithium salt of the diamine was 100 mM, and the pH was always between 7.0 and 8.0. The solution was filtered through a 0.2 μm membrane prior to use. An appropriate amount of the 100 mM stock solution was diluted with deionized water to 500 μL. Microsphere formation was then initiated by addition of an equal volume of 1M citric acid, so that the final concentration ranged from 0 to 50 mM dilithium diamide in 500 mM citric acid with the pH below 2.5. Turbidity was assessed over this range of concentrations by measuring % transmittance at 600 nm. […]
as §1

[4] = pKa determination by titration
Experimental: as §1

[5] = SEM/TEM examination of microcapsules (tannic acid / OsO4 fixation)
Experimental: The sodium salt of the bis-amide dicarboxylic acid of Example 6 was prepared. A white suspension was prepared by combining 100 μL of 0.43M citric acid and 50 μL of a 0.1M aqueous solution of the sodium salt of the diamide. The aqueous suspension was deposited on polylysine-coated glass coverslips and fixed with 2% OsO4 for 4 hours. The sample was washed with distilled water, air dried and sputter coated with gold. SEM photographs are illustrated in FIGS. 3a and 3b.
A white suspension was also prepared by adding a solution containing 50 μL of a 0.86M citric acid and 50 μL of 3 wt. % tannic acid to 50 μL of a 100 mM aqueous solution of the sodium salt of the diamide. The pH was lowered from 7.7 to 2.4. The aqueous solution was deposited on a Nucleopore filter and fixed with 4% OsO4 for 4 hours. The sample was washed with distilled water and 95% EtOH and was air dried. The sample was dispersed in 100% LR white resin and polymerized in an oven at 60° C. TEM photographs are illustrated in FIG. 4.
Estimates of the microcapsule shell thickness (150 nm) would require approximately 100 molecules of the diamide of Example 6 oriented end-to-end to traverse the microcapsule shell. However, a stacking of the bis amides seems more likely. A stacked array would allow for a greater number of assembled tetrapeptides to traverse the capsule shell. […] However, some tannic acid may be intercalated in the microsphere wall.

## O=C(CCC(=O)N[C@@H](Cc1ccccc1)C(=O)O)N[C@@H](Cc1ccccc1)C(=O)O [Example 12, bis(Nα-amido-L-phenylalanine) succinate]
[1]
  Microsphere formation / self-assembly: neither the oxalic derivative of Example 8 nor the succinic analogue of Example 12 did; also recorded: does not self assemble; also recorded: did not form microspheres

## O=C(/C=C\C(=O)N[C@@H](Cc1ccccc1)C(=O)O)N[C@@H](Cc1ccccc1)C(=O)O [Example 15, bis(Nα-amido-L-phenylalanine) maleate]
[2]
  pH at which % T is > 95%: 3.26
[1]
  Microsphere formation / self-assembly: formation of tiny spheres; also recorded: generated microcapsules
  Diameter of spheres: ≤ 10 μm
[3]
  Concentration of amide above which a dense suspension (% T < 0.5) of microspheres is formed: 23000 µM
[4]; read-out: pKa1
  pKa: 3.7
[4]; read-out: pKa2
  pKa: 4.87

## O=C(N[C@@H](Cc1ccccc1)C(=O)O)C(=O)N[C@@H](Cc1ccccc1)C(=O)O [Example 8, bis(Nα-amido-L-phenylalanine) oxalate]
[1]
  Microsphere formation / self-assembly: neither the oxalic derivative of Example 8 nor the succinic analogue of Example 12 did; also recorded: did not form microspheres

## CC(C)(C(=O)N[C@@H](Cc1ccccc1)C(=O)O)C(=O)N[C@@H](Cc1ccccc1)C(=O)O [Example 5, bis(Nα-amido-L-phenylalanine) 1,1-dimethyl malonate]
[2]
  pH at which % T is > 95%: 3.26
[1]
  Microsphere formation / self-assembly: formation of tiny spheres
  Diameter of spheres: ≤ 10 μm
[3]
  Concentration of amide above which a dense suspension (% T < 0.5) of microspheres is formed: 25000 µM
[4]; read-out: pKa1
  pKa: 3.55
[4]; read-out: pKa2
  pKa: 4.62

## O=C(O)[C@H](Cc1ccccc1)NC(=O)C1(C(=O)N[C@@H](Cc2ccccc2)C(=O)O)CC1 [Example 6, bis(Nα-amido-L-phenylalanine) 1,1 -cyclopropane dicarboxylate]
[2]
  pH at which % T is > 95%: 3.26
[1]
  Microsphere formation / self-assembly: formation of tiny spheres
  Diameter of spheres: ≤ 10 μm
[3]
  Concentration of amide above which a dense suspension (% T < 0.5) of microspheres is formed: 13000 µM
[4]; read-out: pKa1
  pKa: 3.53
[4]; read-out: pKa2
  pKa: 4.5
[5]
  Incorporation of tannic acid into the microsphere shell: Little tannic acid was incorporated into the microsphere shell
[5]; shell thickness 150 nm
  Molecules oriented end-to-end required to traverse the microcapsule shell: approximately 100 molecules
[5]; sodium salt, citric acid + tannic acid, TEM
  Estimated microcapsule shell thickness: ~150 nm

## O=C(CC(=O)N[C@@H](Cc1ccccc1)C(=O)O)N[C@@H](Cc1ccccc1)C(=O)O [Example 4, bis(Nα-amido-L-phenylalanine) malonate]
[2]; 50 mM in 500 mM lithium citrate buffers, pH 2.67
  Percent transmittance (% T) at pH 2.67: < 0.5%
[2]; 50 mM in 500 mM lithium citrate buffers, pH 3.26
  Percent transmittance (% T) at pH 3.26: > 95%
[2]
  pH at which % T is > 95%: 3.26
[2]; estimated from pKa and pH measurements
  Estimated number of diamide molecules per one anionic species sufficient to abort assembly: ~30 molecules
[1]
  Microsphere formation / self-assembly: formation of tiny spheres; also recorded: generated microcapsules
  Diameter of spheres: ≤ 10 μm
[3]
  Concentration of amide above which a dense suspension (% T < 0.5) of microspheres is formed: 30000 µM
[3]; 500 mM citric acid, before transition at 30 mM, 600 nm
  % transmittance, clear solution: > 95 % T
[3]; 500 mM citric acid, diamide above 30 mM, 600 nm
  % transmittance, dense suspension of microcapsules: 0.2 % T
[4]; read-out: pKa1
  pKa: 3.67
[4]; read-out: pKa2
  pKa: 4.7

## O=C(O)CCC(=O)N[C@@H](Cc1ccccc1)C(=O)O [Example 11, (Nα-amido-L-phenylalanine) monosuccinate]
[1]
  Microsphere formation / self-assembly: did not form microspheres

## O=C(/C=C/C(=O)N[C@@H](Cc1ccccc1)C(=O)O)N[C@@H](Cc1ccccc1)C(=O)O [Example 16, bis(Nα-amido-L-phenylalanine) fumarate]
[1]
  Microsphere formation / self-assembly: did not form microspheres
